From patent US11377442B2, “Small molecule agonists and antagonists of NR2F6 activity” (ZANDER THERAPEUTICS, INC., priority 2016, dated 2022)
Like-named read-outs stand apart in the source and are kept apart here. One block for each compound: values may come before it.

How the values were obtained:
Assay type in all cases: cell-based
[1] = test system: HEK293 pGL4; test: Firefly_pGL signal, cmpd/DMSO (pGL4 control cells); settings: Homo sapiens
[2] = molecular target: T1, NR2F6 (Homo sapiens, UniProt P10588); test: NR2F6 agonist screening, Firefly signal cmpd/DMSO
T1 construct: expressed in transfected cells; also transient transfection
T1 sequence (P10588 1-404): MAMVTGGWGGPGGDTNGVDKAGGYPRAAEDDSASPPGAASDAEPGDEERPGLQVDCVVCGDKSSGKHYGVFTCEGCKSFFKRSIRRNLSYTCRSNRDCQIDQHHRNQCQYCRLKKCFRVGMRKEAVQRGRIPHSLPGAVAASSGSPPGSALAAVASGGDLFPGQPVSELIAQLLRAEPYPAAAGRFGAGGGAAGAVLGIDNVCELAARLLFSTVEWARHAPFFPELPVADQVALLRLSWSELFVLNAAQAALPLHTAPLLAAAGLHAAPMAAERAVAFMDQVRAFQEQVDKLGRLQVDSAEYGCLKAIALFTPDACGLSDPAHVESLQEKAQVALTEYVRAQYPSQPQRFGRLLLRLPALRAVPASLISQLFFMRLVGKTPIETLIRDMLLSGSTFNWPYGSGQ

[3] = test system: Renilla; test: Renilla signal in NR2F6 agonist screening, cmpd/DMSO; settings: Renilla, F4
[4] = molecular target: T2, NR2F6 LBD (Homo sapiens, UniProt P10588); test: NR2F6 LBD transient transfection; settings: LBD
T2 construct: expressed in transfected cells
T2 sequence (P10588 165-393 limits assumed): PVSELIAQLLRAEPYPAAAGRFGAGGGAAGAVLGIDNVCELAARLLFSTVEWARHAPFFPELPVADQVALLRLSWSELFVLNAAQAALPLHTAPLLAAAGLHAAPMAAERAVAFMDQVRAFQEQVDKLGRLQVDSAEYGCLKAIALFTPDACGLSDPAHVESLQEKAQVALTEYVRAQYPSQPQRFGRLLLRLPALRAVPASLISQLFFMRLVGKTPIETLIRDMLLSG
In short: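 LBD-transfected cells treated at 40, 10, 2 and 0.5 μM (4 replicates); cytotoxicity measured in parallel, normalized to DMSO (0%) and zero signal (100%). Higher concentrations excluded where signal loss reflected toxicity.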

[5] = HEK293, 0.5 uM, pGL4, read-out: Firefly pGL4, cmpd/DMSO (mean)
[6] = HEK293, 2 uM, pGL4, read-out: Firefly pGL4, cmpd/DMSO (mean)
[7] = HEK293, 10 uM, pGL4, read-out: Firefly pGL4, cmpd/DMSO (mean)
[8] = HEK293, 40 uM, pGL4, read-out: Firefly pGL4, cmpd/DMSO (mean)
[9] = HEK293, pGL4, 1% FBS, 0.5 uM, read-out: Firefly, pGL4, 1% FBS, cmpd/DMSO (mean)
[10] = HEK293, pGL4, 1% FBS, 2 uM, read-out: Firefly, pGL4, 1% FBS, cmpd/DMSO (mean)
[11] = HEK293, pGL4, 1% FBS, 10 uM, read-out: Firefly, pGL4, 1% FBS, cmpd/DMSO (mean)
[12] = HEK293, pGL4, 1% FBS, 40 uM, read-out: Firefly, pGL4, 1% FBS, cmpd/DMSO (mean)
[13] = HEK293, pGL4, 10% FBS, 0.5 uM, read-out: Firefly, pGL4, 10% FBS, cmpd/DMSO (mean)
[14] = HEK293, pGL4, 10% FBS, 2 uM, read-out: Firefly, pGL4, 10% FBS, cmpd/DMSO (mean)
[15] = HEK293, pGL4, 10% FBS, 10 uM, read-out: Firefly, pGL4, 10% FBS, cmpd/DMSO (mean)
[16] = HEK293, pGL4, 10% FBS, 40 uM, read-out: Firefly, pGL4, 10% FBS, cmpd/DMSO (mean)
[17] = read-out: Renilla, F4, cmpd/DMSO (mean)
[18] = 1% FBS, read-out: Renilla, F4, 1% FBS, cmpd/DMSO (mean)
[19] = 10% FBS, read-out: Renilla, F4, 10% FBS, cmpd/DMSO (mean)

- Firefly F4, cmpd/DMSO (mean) ([2]; 0.5 uM): 1.1
- Firefly F4, cmpd/DMSO (mean) ([2]; 2 uM): 2.2
- Firefly F4, cmpd/DMSO (mean) ([2]; 10 uM): 4.7
- Firefly F4, cmpd/DMSO (mean) ([2]; 40 uM): 0.5
- F4, Firefly/Renilla for S/B(F4) > 3 ([2]; 1% FBS, 10 uM): 3.4
- Firefly, F4/pGL4 for S/B(F4) > 3 ([2]; 1% FBS, 10 uM): 3.2
- F4, Firefly/Renilla for S/B(F4) > 3 ([2]; 10% FBS, 10 uM): 2.3
- Firefly, F4/pGL4 for S/B(F4) > 3 ([2]; 10% FBS, 10 uM): 1.9
- Firefly, F4, 1% FBS, cmpd/DMSO (mean) ([2]; 1% FBS, 0.5 uM): 0.9
- Firefly, F4, 1% FBS, cmpd/DMSO (mean) ([2]; 1% FBS, 2 uM): 2.1
- Firefly, F4, 1% FBS, cmpd/DMSO (mean) ([2]; 1% FBS, 10 uM): 5.9
- Firefly, F4, 1% FBS, cmpd/DMSO (mean) ([2]; 1% FBS, 40 uM): 0.1
- Firefly, F4, 10% FBS, cmpd/DMSO (mean) ([2]; 10% FBS, 0.5 uM): 0.9
- Firefly, F4, 10% FBS, cmpd/DMSO (mean) ([2]; 10% FBS, 2 uM): 1.2
- Firefly, F4, 10% FBS, cmpd/DMSO (mean) ([2]; 10% FBS, 10 uM): 4.1
- Firefly, F4, 10% FBS, cmpd/DMSO (mean) ([2]; 10% FBS, 40 uM): 2.9
- Firefly LBD, cmpd/DMSO (mean) ([4]; 0.5 uM): 1.1
- Firefly LBD, cmpd/DMSO (mean) ([4]; 2 uM): 2.1
- Firefly LBD, cmpd/DMSO (mean) ([4]; 10 uM): 4.2
- Firefly LBD, cmpd/DMSO (mean) ([4]; 40 uM): 0.2
Structure (SMILES): CCCN[C@H]1CS(=O)(=O)C[C@@H]1S(=O)(=O)c1ccc(Cl)cc1 [Compound D117]
- fold induction at 0.5 µM [1, 5]: 1
- fold induction at 2 µM [1, 6]: 1.4
- fold induction at 10 µM [1, 7]: 4.6
- fold induction at 40 µM [1, 8]: 0.3
- fold induction at 0.5 µM [1, 9]: 1
- fold induction at 2 µM [1, 10]: 1.4
- fold induction at 10 µM [1, 11]: 1.9
- fold induction at 40 µM [1, 12]: 0.6
- fold induction at 0.5 µM [1, 13]: 1.1
- fold induction at 2 µM [1, 14]: 1.6
- fold induction at 10 µM [1, 15]: 2.2
- fold induction at 40 µM [1, 16]: 1.2
- fold induction at 0.5 µM [3, 17]: 1
- fold induction at 2 µM [3, 17]: 1.3
- fold induction at 10 µM [3, 17]: 1.7
- fold induction at 40 µM [3, 17]: 0.4
- fold induction at 0.5 µM [3, 18]: 1
- fold induction at 2 µM [3, 18]: 1.4
- fold induction at 10 µM [3, 18]: 1.7
- fold induction at 40 µM [3, 18]: 0.8
- fold induction at 0.5 µM [3, 19]: 1
- fold induction at 2 µM [3, 19]: 1
- fold induction at 10 µM [3, 19]: 1.8
- fold induction at 40 µM [3, 19]: 2.4

- Firefly F4, cmpd/DMSO (mean) ([2]; 0.5 uM): 0.9
- Firefly F4, cmpd/DMSO (mean) ([2]; 2 uM): 2.0
- Firefly F4, cmpd/DMSO (mean) ([2]; 10 uM): 5.3
- Firefly F4, cmpd/DMSO (mean) ([2]; 40 uM): 0.6
- F4, Firefly/Renilla for S/B(F4) > 3 ([2]; 1% FBS, 10 uM): 2.5
- Firefly, F4/pGL4 for S/B(F4) > 3 ([2]; 1% FBS, 10 uM): 1.9
- F4, Firefly/Renilla for S/B(F4) > 3 ([2]; 10% FBS, 10 uM): 2.7
- Firefly, F4/pGL4 for S/B(F4) > 3 ([2]; 10% FBS, 10 uM): 3.3
- Firefly, F4, 1% FBS, cmpd/DMSO (mean) ([2]; 1% FBS, 0.5 uM): 1.5
- Firefly, F4, 1% FBS, cmpd/DMSO (mean) ([2]; 1% FBS, 2 uM): 1.8
- Firefly, F4, 1% FBS, cmpd/DMSO (mean) ([2]; 1% FBS, 10 uM): 4.4
- Firefly, F4, 1% FBS, cmpd/DMSO (mean) ([2]; 1% FBS, 40 uM): 0.2
- Firefly, F4, 10% FBS, cmpd/DMSO (mean) ([2]; 10% FBS, 0.5 uM): 1.5
- Firefly, F4, 10% FBS, cmpd/DMSO (mean) ([2]; 10% FBS, 2 uM): 1.1
- Firefly, F4, 10% FBS, cmpd/DMSO (mean) ([2]; 10% FBS, 10 uM): 7.3
- Firefly, F4, 10% FBS, cmpd/DMSO (mean) ([2]; 10% FBS, 40 uM): 1.6
- Firefly LBD, cmpd/DMSO (mean) ([4]; 0.5 uM): 1.0
- Firefly LBD, cmpd/DMSO (mean) ([4]; 2 uM): 1.5
- Firefly LBD, cmpd/DMSO (mean) ([4]; 10 uM): 3.4
- Firefly LBD, cmpd/DMSO (mean) ([4]; 40 uM): 0.5
Structure (SMILES): CCCCN[C@H]1CS(=O)(=O)C[C@@H]1S(=O)(=O)c1ccc(Cl)cc1 [Compound D119]
- fold induction at 0.5 µM [1, 5]: 1.1
- fold induction at 2 µM [1, 6]: 1.5
- fold induction at 10 µM [1, 7]: 3.9
- fold induction at 40 µM [1, 8]: 0.6
- fold induction at 0.5 µM [1, 9]: 1.2
- fold induction at 2 µM [1, 10]: 1.4
- fold induction at 10 µM [1, 11]: 2.4
- fold induction at 40 µM [1, 12]: 0.7
- fold induction at 0.5 µM [1, 13]: 1.1
- fold induction at 2 µM [1, 14]: 1.2
- fold induction at 10 µM [1, 15]: 2.2
- fold induction at 40 µM [1, 16]: 0.5
- fold induction at 0.5 µM [3, 17]: 1.2
- fold induction at 2 µM [3, 17]: 1.2
- fold induction at 10 µM [3, 17]: 1.6
- fold induction at 40 µM [3, 17]: 0.2
- fold induction at 0.5 µM [3, 18]: 1.1
- fold induction at 2 µM [3, 18]: 1.1
- fold induction at 10 µM [3, 18]: 1.8
- fold induction at 40 µM [3, 18]: 0.4
- fold induction at 0.5 µM [3, 19]: 1.4
- fold induction at 2 µM [3, 19]: 1.5
- fold induction at 10 µM [3, 19]: 2.7
- fold induction at 40 µM [3, 19]: 1.3
